In one series the test system is PTP1B. The conditions noted are these: in vitro, bank of commercially available phosphatases; cited from earlier work.
For series [1] the following is noted: cited from earlier work.
A short description of series [2]: Plasma pharmacokinetics of ENT-03S cyclodextrin formulation after subcutaneous injection. The conditions noted are these: Sprague-Dawley, rat; 20% beta-cyclodextrin formulation; SC Dose 10 mg/kg; male SD rats; plasma; mean; read-out: Tmax Mean. In kind it is in vivo, rat. As to the method:
In this example, ENT-03S was formulated with unmodified beta-cyclodextrin at a concentration of 25 mg/ml ENT-03, and 20% beta-cyclodextrin, pH 7.5, buffered with phosphate.
Male Sprague-Dawley rats were administered the ENT-03-cyclodextrin formulation subcutaneous at a dose of 10 mg/kg. Blood samples were drawn from the tail vein at various times, the concentrations of ENT-03 determined, and PK parameters determined.

The nature of series [3]: Identification of metabolites of ENT-03S in rat plasma and urine samples (UPLC-MS/MS). In kind it is in vivo. As for the experimental part: An equal number of rat urine (50 μL) were taken from different animals at various time points following administration of ENT-03S. For plasma samples, the Hamilton pooling method was used.
Study design: An equal number of rat urine (50 μL) samples were taken from different animals at various time points from study No.: PH-DMPK-ETR-21-001 following administration of ENT-03S. For plasma samples, the Hamilton pooling method was used.
The samples were then analysed using UPLC-MS/MS.
Compound dependent parameters were optimized by ENT-03S.

The nature of series [4]: Identification of metabolites of ENT-03S in rat bile samples (UPLC-MS/MS). The conditions noted are these: bile duct cannulated male SD rats, 10 mg/kg ENT-03S SC; for Metabolite peak area percentages Rat Bile: pooled bile 0-24 h, relative XIC peak area; for Metabolite peak area Rat Bile: pooled bile, XIC peak area.
Method: An equal volume of rat bile samples (50 μL) were taken from different animals at different time points following administration of ENT-03S. 50 μL of matrix was mixed with 200 μL of methanol (containing 0.1% formic acid), vortexed for 100 seconds and then centrifuged at 16,000 g for 10 minutes at 4° C. to precipitate proteins. 100 μL of the supernatant was transferred to a new tube and the supernatant diluted with 100 μt, pure water, mixed well and analyzed using UPLC-MS/MS.
The peak area percentages of parent drug and each metabolite were determined by semi-quantitative estimation using the extracted ion chromatogram peak areas of all detected drug-related material in the sample. Metabolites with percentage of peak area>10% are proposed as major metabolites of ENT-03S.
Bile samples were obtained from male rats at various time points following a 10 mg/kg dose of ENT-03S via subcutaneous administration in bile dicut cannulated male SD rats as detailed in Table 10. The samples were transferred on dry ice and stored at −80° C. prior to use
Study design: An equal volume of rat bile samples (50 μL) were taken from different animals at different time points following administration of ENT-03S in study No.: PII-DMPK-ETR-21-001. 50 μL of matrix was mixed with 200 μL of methanol (containing 0.1% formic acid), vortexed for 100 seconds and then centrifuged at 16,000 g for 10 minutes at 4° C. to precipitate proteins. 100 μL of the supernatant was transferred to a new tube and the supernatant diluted with 100 μL pure water, mixed well and analyzed using UPLC-MS/MS.
Sample preparation: For bile samples, an equal volume of samples (50 μL) are taken from different animals at various time points after the administration of each group of samples, and the same group of samples are mixed thoroughly.
Data Analysis: UPLC-MS/MS was used for sample analysis, and was conducted using a DionexUltiMate 3000/Vanquish UHPLC system. For mass spectrometry (MS), all analysis was carried out with a Q-Exactive instrument (Thermo Fisher). A full MS scan was used to trigger the data dependent acquisition (DDA) of MS/MS scan spectra. Compound dependent parameters were optimized by ENT-03S. DDA settings were used to trigger acquisition of MS^2 spectra for ions whose intensity is in top 5 of all, with exclusion of impurity ions (m/z 149.02332, m/z 279.15909, m/z 391.28429 and m/z 445.12003), after 3 occurrences for 10 s. Dynamic exclusion settings: automatic exclusion of the ions which have been taken.
Data Analysis: The analysis was carried out using a thermo Fisher Scientific Q Exactive instrument. Full MS scan was used to trigger the data dependent acquisition (DDA) of MS/MS scan spectra. Compound dependent parameters were optimized by ENT-03S. DDA settings were used to trigger acquisition of MS^2 spectra for ions whose intensity was in the top 5 of all, with exclusion of ions (m/z 149.02332, m/z 279 1 5909, m/z 391.28429 and m/z 445 12003), after 3 occurrences for 10 s. Data was acquired and processed using Xcalibur v4.1 software (Thermo Fisher Scientific) and Compound Discoverer 3.1 (Thermo Fisher Scientific) and Excel (Microsoft 2016).

Usually Tmax stands for the time from dosing to the highest level. Take `CC(CCC[C@@H](C)[C@H]1CCC2C3C(CC[C@@]21C)[C@@]1(C)CC[C@H](NCCCNCCCCNCCCN)C[C@@H]1C[C@H]3O)C(=O)O` (single isomer, unassigned) [ENT-03]: the “inhibition of PTP1B relative to the other phosphatases assayed” value with PTP1B was “most potently inhibited”. In series [1] (in vivo), the hepatic steatosis result was “reduces hepatic steatosis” and the insulin sensitivity entry was “acutely increases insulin sensitivity”. Also, the “food intake and body weight” value in series [1] (peripheral and central administration to lean rodents) was “prolonged reduction in food intake and body weight”. Moreover, the Tmax in series [2] is 2 h.
`C[C@H](CCC(=O)O)[C@H]1CCC2C3C(CC[C@@]21C)[C@@]1(C)CC[C@H](NCCCNCCCCNCCCN)C[C@@H]1C[C@H]3O` (single isomer, unassigned) [ENT-17]: the “Metabolite peak area percentages Rat Plasma Male” value in series [3] (pooled male SD rat plasma 0.25-24 h after 10 mg/kg ENT-03S SC, relative XIC peak area) was 0.55%. In addition, the “Metabolite peak area Rat Plasma Male” value in series [3] (pooled male SD rat plasma after 10 mg/kg ENT-03S SC, XIC peak area) was determined as 3.62E+06. Also, the “Metabolite peak area percentages Rat Urine Male” value in series [3] (pooled male SD rat urine 0-24 h after 10 mg/kg ENT-03S SC, relative XIC peak area, “—”: not observed) was determined as 7.56%. Further, the “Metabolite peak area Rat Urine Male” value in series [3] (pooled male SD rat urine after 10 mg/kg ENT-03S SC, XIC peak area, “—”: not observed) stood at 1.70E+05.
Consider `C[C@H](CCC[C@H](C)C(=O)O)[C@H]1CCC2C3C(CC[C@@]21C)[C@@]1(C)CC[C@H](NCCCNCCCCNCCC(=O)O)C[C@@H]1C[C@H]3O` (stereo partly drawn) [ENT-25S], for which, in series [4], the “Metabolite peak area percentages Rat Bile” value came out at 9.52% and the “Metabolite peak area Rat Bile” value came to 1.17E+07.
For `C[C@H](CCC(=O)NCCS(=O)(=O)O)[C@H]1CCC2C3C(CC[C@@]21C)[C@@]1(C)CC[C@H](NCCC(=O)O)C[C@@H]1C[C@H]3O` (some centres unmarked) [M3-RB], in series [4], the “Metabolite peak area percentages Rat Bile” value is recorded as 2.27% and the “Metabolite peak area Rat Bile” value is 2.80E+06.
Regarding `C[C@H](CCC[C@H](C)C(=O)O)[C@H]1CCC2C3C(CC[C@@]21C)[C@@]1(C)CC[C@H](NCCCNCCCC(=O)O)C[C@@H]1C[C@H]3O` (some centres unmarked) [M10-PU/M14-RB], in series [4], the “Metabolite peak area percentages Rat Bile” value is 3.23% and the “Metabolite peak area Rat Bile” value is given as 3.98E+06.
On the same counts, the results for `C[C@H](C[C@H](C)C(=O)O)[C@H]1CCC2C3C(CC[C@@]21C)[C@@]1(C)CC[C@H](NCCC(=O)O)C[C@@H]1C[C@H]3O` (some centres unmarked) [M16-RB] are 0.69% and 8.45E+05.

The record behind these values is patent publication US20260263485A1, “AMINOSTEROL COMPOUNDS, AMINOSTEROL-CYCLODEXTRIN FORMULATIONS, AND METHODS OF USING THE SAME” (Enterin, Inc., priority 2022, published 2026).
